Molecular target: T1, purified human sGC treated with ODQ (oxidized heme) (Homo sapiens, UniProt Q02153)
T1 construct: purchased EnzoLifeScience, Lörrach, Germany
T1 sequence (Q02153 1-619): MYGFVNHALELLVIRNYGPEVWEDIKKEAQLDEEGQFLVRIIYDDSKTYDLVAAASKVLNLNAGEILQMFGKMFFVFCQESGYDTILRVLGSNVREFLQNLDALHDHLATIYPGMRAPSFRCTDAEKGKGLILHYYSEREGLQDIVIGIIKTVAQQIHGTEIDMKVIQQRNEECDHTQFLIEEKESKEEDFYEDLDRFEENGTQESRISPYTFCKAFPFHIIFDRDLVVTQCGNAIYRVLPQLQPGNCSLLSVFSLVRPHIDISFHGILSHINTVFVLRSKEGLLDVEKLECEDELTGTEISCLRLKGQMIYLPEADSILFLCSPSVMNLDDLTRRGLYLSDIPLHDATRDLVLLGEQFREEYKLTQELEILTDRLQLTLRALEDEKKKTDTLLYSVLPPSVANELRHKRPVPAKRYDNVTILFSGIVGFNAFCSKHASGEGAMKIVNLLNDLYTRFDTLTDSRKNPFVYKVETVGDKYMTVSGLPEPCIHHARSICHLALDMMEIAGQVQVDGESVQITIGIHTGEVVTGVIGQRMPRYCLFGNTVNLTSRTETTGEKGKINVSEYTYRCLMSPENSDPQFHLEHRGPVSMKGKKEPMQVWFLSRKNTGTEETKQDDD
T1 sequence (Q02108 1-690 partner): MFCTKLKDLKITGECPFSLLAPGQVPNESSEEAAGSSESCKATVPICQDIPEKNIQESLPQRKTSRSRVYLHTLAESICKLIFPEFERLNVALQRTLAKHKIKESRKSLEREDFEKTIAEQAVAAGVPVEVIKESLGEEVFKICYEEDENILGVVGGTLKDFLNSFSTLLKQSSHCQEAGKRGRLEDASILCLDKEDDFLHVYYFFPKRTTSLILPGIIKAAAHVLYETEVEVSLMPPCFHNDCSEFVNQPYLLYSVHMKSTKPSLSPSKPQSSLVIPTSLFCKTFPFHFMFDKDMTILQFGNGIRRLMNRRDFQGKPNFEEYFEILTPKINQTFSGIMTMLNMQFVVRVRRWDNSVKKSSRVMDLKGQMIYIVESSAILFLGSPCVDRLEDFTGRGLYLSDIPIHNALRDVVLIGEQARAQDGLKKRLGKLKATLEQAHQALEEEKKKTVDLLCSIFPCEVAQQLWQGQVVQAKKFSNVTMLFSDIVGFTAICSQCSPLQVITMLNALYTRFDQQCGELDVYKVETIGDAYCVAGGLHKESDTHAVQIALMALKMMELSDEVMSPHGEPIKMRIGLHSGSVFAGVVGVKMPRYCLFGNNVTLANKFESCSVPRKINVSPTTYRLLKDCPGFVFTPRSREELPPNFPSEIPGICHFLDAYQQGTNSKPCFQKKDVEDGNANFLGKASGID
Assay: sGC activity of purified human sGC treated with ODQ
Format: biochemical
Conditions: 10 μM ODQ, 0.3 μM BAY 58-2667 ± 10 μM BAY 41-2272 (FIG. 7A); ODQ concentration series with 30 μM Bay 41-2272 (FIG. 7B)

- sGC activity of sGC with fully oxidized heme on addition of sGC stimulator: still activatable by potentiation
SMILES: Nc1nc(-c2nn(Cc3ccccc3F)c3ncccc23)ncc1C1CC1 [BAY 41-2272, 5-cyclopropyl-2-[1-(2-fluoro-benzyl)-1H-pyrazolo[3,4-b]pyridin-3-yl]-pyrimidin-4-ylamine]

Source: patent US20230087609A1, “USE OF A SOLUBLE GUANYLATE CYCLASE (sGC) STIMULATOR OR OF A COMBINATION OF A sGC STIMULATOR AND AN sGC ACTIVATOR FOR CONDITIONS WHEREIN THE HEME GROUP OF sGC IS OXIDIZED OR WHEREIN sGC IS DEFICIENT IN HEME” (Universiteit Maastricht, priority 2020, published 2023)
